In brackets after ≈: the same amount, converted by molar mass. Several values for one entry are separate records, joined by “and”; a condition that tells them apart may be missing. Identical values can stand only once. Like-named read-outs stand apart in the source and are kept apart here.
Tests used:
[1] = extended release tablets; various studies; cited from earlier work
[2] = in vivo; cited from earlier work
Solubility of LD = format: physicochemical; details: citrate buffered solution of about pH 4.5, 25° C.
Method: LD is poorly soluble in most non-toxic solvents, including water and alcohols. […] LD is even less soluble in alcohols. To deliver a typical daily dose of 1,000 mg approximately 150 mL of saturated LD aqueous solution would be required, which is incompatible with the volume requirements for a drug delivery device placed in the mouth.

[3] = assumed for dissolution of orally delivered solid LD in saliva; cited from earlier work

Compound	Fluctuation Index [1]	crossing of the blood-brain barrier [2]	plasma half-life [2]	other results
NC(=O)N1c2ccccc2C=Cc2ccccc21 [Carbamazepine]	0.31 and 0.26 and 0.47 and 0.49	–	–	–
CCN(CC)C(=O)/C(C#N)=C/c1cc(O)c(O)c([N+](=O)[O-])c1 [Entacapone]	–	does not cross the blood-brain barrier	0.4 to 0.7 h	physiological half-life [2]: less than 1 hour
N[C@@H](Cc1ccc(O)c(O)c1)C(=O)O [LD, levodopa]	–	–	–	solubility (Solubility of LD; aqueous buffer, read-out: solubility): ~34 mM (≈ 6700 µg/mL); solubility (Solubility of LD): about 0.68 g/100 mL; solubility [3]: about 50 mg/mL
CC[C@@H](C(N)=O)N1CCCC1=O [Levetiracetam]	1.19 and 1.27	–	–	–
Cc1ccc(C(=O)c2cc(O)c(O)c([N+](=O)[O-])c2)cc1 [Tolcapone]	–	crosses the barrier	2 to 3 h	hepatotoxicity [2]: limited by its hepatotoxicity
